Results from US20240408169A1 (priority 2023, published 2024).
*1 amine or outer side, *2 acyl side, *3 side chain or, on linkers, in order; H or OH if unused. Where a SMILES comes first, the peptide text is derived from it. Bridges are numbered along the chain shown (N, C = ends). [ ]: non-standard residue; d: D form. The star is where a group is joined. X203 = CN([C@@H](Cc1cc(Cl)ccc1-c1cnn(C(F)F)c1)C(=O)[*:2])[*:1]; X177 = CN([C@@H](Cc1cc(F)ccc1C1=CC2CCC(C1)N2)C(=O)[*:2])[*:1]; NMehhhLys(Me) = CN([C@@H](CCCCCCCN(C)[*:3])C(=O)[*:2])[*:1]; NMe3Pal(2-OcPr,5-F) = CN[C@@H](Cc1cc(F)cnc1OC1CC1)C(=O)O; X204 = CN([C@@H](Cc1cc(F)ccc1-c1ccnnc1)C(=O)[*:2])[*:1]; NMe(hhhLys) = CN([C@@H](CCCCCCCN[*:3])C(=O)[*:2])[*:1]; X164 = C=C(C)c1ccc(Cl)cc1C[C@@H](C(=O)[*:2])N(C)[*:1]; Cyclobutanecarbonyl(1-CF3) = O=C(C1(C(F)(F)F)CCC1)*; cBuCO(3,3-F2-1-CF3) = O=C(C1(C(F)(F)F)CC(F)(F)C1)*; Pro(trans-4-F) = O=C(O)[C@@H]1C[C@@H](F)CN1; Gly(cPr) = N[C@H](C(=O)O)C1CC1

How the values were obtained:
NCI-H1048 cells = test: MTT proliferation assay, NCI-H1048; assay type: cell-based; conditions: 5 days compound exposure, 1:3 serial dilution starting at 10 μM;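 note: Dose-response in 96-well plates over 8 or 10 concentration points, with exposure spanning 3-4 cell doublings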
CyclinA2/CDK2 = target: T1, CyclinA2/CDK2 (Homo sapiens, UniProt P20248); test: Fluorescence Polarization (FP) competitive binding assay, Cyclin A2/Cdk2; conditions: 8 nM Cyclin A2/Cdk2, 2 nM FAM probe; average of 2-3 independent experiments; read-out: Cyclin A FP IC50;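 note: plates equilibrated two hours at room temperature before polarization reading, IC50 fitted from eight-concentration compound titration curves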
T1 construct: purchased CRELUX Protein Services

CyclinE1/CDK2 = target: T2, CyclinE1/CDK2 (Homo sapiens, UniProt P24864); test: Fluorescence Polarization (FP) competitive binding assay, Cyclin E1/Cdk2; conditions: 10 nM Cyclin E1/Cdk2, 2 nM FAM probe; average of 2-3 independent experiments; read-out: Cyclin E FP IC50;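 note: readings taken after two-hour equilibration at room temperature in HEPES buffer with NaCl, DTT, NP-40 and BSA, IC50 fitted from eight-concentration serial dilution series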
T2 construct: purchased Eurofins, discovery 14-475

OVCAR3 cells = test: MTT proliferation assay, OVCAR3; assay type: cell-based; conditions: 5 days compound exposure, 1:3 serial dilution starting at 10 μM;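 note: compound given as an 8- or 10-point series, one day after plating, with exposure covering roughly 3-4 cell doublings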
CyclinB1/CDK1 = target: T3, CyclinB1/CDK1 (Homo sapiens, UniProt P14635); test: Fluorescence Polarization (FP) competitive binding assay, Cyclin B1/Cdk1; conditions: 10 nM Cyclin B1/Cdk1, 2 nM FAM probe; average of 2-3 independent experiments; read-out: Cyclin B FP IC50;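 note: fluorescence polarization read after equilibration at room temperature, with IC50 taken from serially diluted dose-response curves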
T3 construct: purchased Eurofins, discovery 14-450

SMILES | GI50 (NCI-H1048 cells) | IC50 (CyclinA2/CDK2) | IC50 (CyclinE1/CDK2) | GI50 (OVCAR3 cells) | IC50 (CyclinB1/CDK1)
CC(C)C[C@@H]1NC(=O)[C@@H](N(C)C(=O)[C@@H](NC(=O)[C@@H]2C[C@@H](F)CN2C(=O)C2(C(F)(F)F)CC(F)(F)C2)C2CC2)CCCCCCCN(C)C(=O)[C@H](Cc2cc(F)ccc2C2=CC3CCC(C2)N3)N(C)C1=O (stereo partly drawn) [Example 165, (2S,4R)—N-((1S)-2-(((3S,6S,9S)-3-(2-(8-azabicyclo[3.2.1]oct-2-en-3-yl)-5-fluorobenzyl)-6-isobutyl-1,4-dimethyl-2,5,8-trioxo-1,4,7-triazacyclohexadecan-9-yl)(methyl)amino)-1-cyclopropyl-2-oxoethyl)-1-(3,3-difluoro-1-(trifluoromethyl)cyclobutane-1-carbonyl)-4-fluoropyrrolidine-2-carboxamide] ({cBuCO(3,3-F2-1-CF3)}-[Pro(trans-4-F)][Gly(cPr)][NMehhhLys(Me)]L[X177]; lactam 3-C) | 340 nM | 110 nM | 5470 nM | 1670 nM | 20 nM
CC(C)C[C@@H]1NC(=O)[C@@H](N(C)C(=O)[C@@H](NC(=O)[C@@H]2C[C@@H](F)CN2C(=O)C2(C(F)(F)F)CC(F)(F)C2)C2CC2)CC=CCCCCNC(=O)[C@H](Cc2cc(Cl)ccc2C2=CCN(S(C)(=O)=O)CC2)N(C)C1=O [Example 23] | 180 nM | 120 nM | 5470 nM | 210 nM | 20 nM
C=C(C)c1ccc(Cl)cc1C[C@H]1C(=O)NCCCCCCC[C@H](N(C)C(=O)[C@@H](NC(=O)[C@@H]2C[C@@H](F)CN2C(=O)C2(C(F)(F)F)CC(F)(F)C2)C2CC2)C(=O)N[C@@H](CC(C)C)C(=O)N1C [Example 61] ({cBuCO(3,3-F2-1-CF3)}-[Pro(trans-4-F)][Gly(cPr)][NMe(hhhLys)]L[X164]; lactam 3-C) | 20 nM | 20 nM | 1010 nM | 40 nM | 20 nM
CC(C)C[C@@H]1NC(=O)[C@@H](N(C)C(=O)[C@@H](NC(=O)[C@@H]2C[C@@H](F)CN2C(=O)C2(C(F)(F)F)CC(F)(F)C2)C2CC2)CCCCCCCN(C)C(=O)[C@H](Cc2cc(F)ccc2-c2ccnnc2)N(C)C1=O [Example 279] ({cBuCO(3,3-F2-1-CF3)}-[Pro(trans-4-F)][Gly(cPr)][NMehhhLys(Me)]L[X204]; lactam 3-C) | 80 nM | 100 nM | 1920 nM | 90 nM | 20 nM
CC(C)C[C@@H]1NC(=O)[C@@H](N(C)C(=O)[C@@H](NC(=O)[C@@H]2C[C@@H](F)CN2C(=O)C2(C(F)(F)F)CC(F)(F)C2)C2CC2)CC=CCCCCNC(=O)[C@H](Cc2cc(F)ccc2-c2cnn(C)c2)N(C)C1=O [Example 195] | 10 nM | 40 nM | 180 nM | 10 nM | 20 nM
CC(C)C[C@@H]1NC(=O)[C@@H](N(C)C(=O)[C@@H](NC(=O)[C@@H]2C[C@@H](F)CN2C(=O)C2(C(F)(F)F)CC(F)(F)C2)C2CC2)CC=CCCCCN(C)C(=O)[C@H](Cc2cc(F)ccc2-c2cnn(C)c2)N(C)C1=O [Example 37] | 40 nM | 50 nM | 370 nM | 50 nM | 20 nM
CC(C)C[C@@H]1NC(=O)[C@@H](N(C)C(=O)[C@@H](NC(=O)[C@@H]2C[C@@H](F)CN2C(=O)C2(C(F)(F)F)CC(F)(F)C2)C2CC2)CCCCCCCN(C)C(=O)[C@H](Cc2cc(Cl)ccc2-c2cnn(C(F)F)c2)N(C)C1=O [Example 200] ({cBuCO(3,3-F2-1-CF3)}-[Pro(trans-4-F)][Gly(cPr)][NMehhhLys(Me)]L[X203]; lactam 3-C) | 40 nM | 30 nM | 890 nM | 30 nM | 20 nM
CC(C)C[C@@H]1NC(=O)[C@@H](N(C)C(=O)[C@@H](NC(=O)[C@@H]2C[C@@H](F)CN2C(=O)C2(C(F)(F)F)CCC2)C2CC2)CCCCCCCNC(=O)[C@H](Cc2cc(F)cnc2OC2CC2)N(C)C1=O [Example 134] ({Cyclobutanecarbonyl(1-CF3)}-[Pro(trans-4-F)][Gly(cPr)][NMe(hhhLys)]L[NMe3Pal(2-OcPr,5-F)]; lactam 3-C) | 30 nM | 100 nM | 120 nM | 40 nM | 20 nM
CC(=O)N1CC=C(c2ccc(Cl)cc2C[C@H]2C(=O)N(C)CCCCCC[C@H](N(C)C(=O)[C@@H](NC(=O)[C@@H]3C[C@@H](F)CN3C(=O)C3(C(F)(F)F)CC(F)(F)C3)C3CC3)C(=O)N[C@@H](CC(C)C)C(=O)N2C)CC1 [Example 74] | 110 nM | 50 nM | 3620 nM | 170 nM | 20 nM
